According to PMC7339578, “Multiple circulating alkaloids and saponins from intravenous Kang-Ai injection inhibit human cytochrome P450 and UDP-glucuronosyltransferase isozymes: potential drug–drug interactions” (Chinese Medicine, 2020):
“And” between values parts separate entries of the source, which are not always exact repeats. Identical values can stand only once. Like-named read-outs stand apart in the source and are kept apart here.

Legend:
[1] = Plasma pharmacokinetics in rats after a 30-min intravenous infusion of Kang-Ai injection; format: in vivo, Sprague–Dawley rats; details: male, Sprague-Dawley, in vivo
Procedure: Specific pathogen free (SPF) grade male Sprague–Dawley rats (250 ± 20) g were provided by the Experimental Animal Center of Zhengzhou University (Zhengzhou, China). These rats were kept in a designated animal room at constant temperature (22 ± 2) °C and humidity (50 ± 20) % with 12 h of light/dark per day and free access to water and food. All protocols of animal experiments were approved in accordance with the Regulations of Experimental Animal Administration issued by the Ethics Review Committee for Animal Experimentation of Jinan University (Ethical Review NO. 20190301010). Prior to the experiments, the rats were fasted for 12 h but with free access to water. After study use, the rats were euthanized with CO2 gas.
The rats in this study all received a single 30-min intravenous infusion of Kang-Ai injection via the tail veins using TYD01-02 infusion pumps (Lead Fluid, Baoding, China). The dose was derived from the label daily dose of Kang-Ai injection (60 mL/person, once daily) according to dose normalization by body surface area. For plasma pharmacokinetic studies, the rats were randomly received a single intravenous 30 min-bolus dose at 6 mL/kg. Blood samples (100 μL) were collected from the rats’ external jugular veins into heparinized polypropylene tubes at 5, 15, 30, 45 min, and 1, 1.5, 2, 3, 4, 6, 8, 12 h. After gently shaking for 10 s, the blood samples were centrifuged at 13000 g for 10 min to yield plasma samples, which were kept frozen at − 80 °C until analysis.
(§1) Pharmacokinetic parameters were estimated by non-compartmental analysis using WinNonlin 6.3 software (Pharsight, NC, US). Data are presented as the mean ± SD (n = 3). The area under the concentration–time curve up to the last measured point in time (AUC0-t) was calculated using the trapezoidal rule. The total plasma clearance (CLtot, p) was calculated by dividing the compound dose by the AUC0-∞, and the distribution volume at steady state (VSS) was estimated by multiplying the CLtot, p by the mean residence time (MRT). The renal excretory clearance (CLR) and hepatobiliary (CLB) was determined by dividing the cumulative amount excreted into urine (Cum.Ae-U) and bile (Cum.Ae-B) by the plasma AUC0-∞, respectively. The fractions of dose excreted into urine (fe-U) and the fractions of dose excreted into bile (fe-B) were established using the relationship Cum.Ae-U/Dose and Cum.Ae-B/Dose, respectively. Mean differences between treatment and control groups were analyzed by two-tailed unpaired Student’s t test by Graphpad Prism V5 software (SanDiego, CA). The level of significance was set at p < 0.05 (∗), p < 0.01 (∗∗) or p < 0.001 (∗∗∗).

[2] = Urinary (renal) excretion in rats after a 30-min infusion of Kang-Ai injection; format: in vivo, Sprague–Dawley rats; details: Kang-Ai injection 6 mL/kg iv; for CL renal: male, Sprague-Dawley, rat, read-out: CLR (renal excretory clearance) (converted); for fe-U,0–12h (fraction of dose excreted into urine): rat urine 0–12 h
Procedure: (§2) For urine sampling, the rats were housed singly in metabolic cages. And then, the urine samples were collected at 0–4, 4–8 and 8–12 h after starting infusion and were weighed. Likewise, bile samples were also collected at 0–3, 3–6, 6–9 and 9–12 h after starting infusion and were weighed. The urine and bile collection tubes were all frozen at − 80 °C.
as §1

[3] = Biliary (hepatobiliary) excretion in rats after a 30-min infusion of Kang-Ai injection; format: in vivo, Sprague–Dawley rats; details: rat bile 0–12 h; Kang-Ai injection 6 mL/kg iv
Procedure: as §2, §1

[4] = Protein binding assay (equilibrium dialysis); format: in vitro ADME, rat
Procedure: Binding of circulating alkaloids and saponins to rat plasma was measured by equilibrium dialysis using Spectra/Por 2 dialysis membranes (molecular weight cutoff, 12–14 kDa; Rancho Dominguez, CA, USA) as described. After equilibrating for 24 h at 55 rpm and 37 °C, the dialysate and the plasma were sampled for analysis. […] The concentrations of tested matrine, oxysophocarpine and oxymatrine were 2 μmol/L, while those of astragaloside IV, III, and ginsenosides Rh1, Rg2, Rg1, Rf, Re, Rd, Rc, Rb1, Rb2, notoginsenosides R1, R2, were 4 μmol/L. The unbound fraction (fu-plasma) in rat plasma was calculated as follow: fu-plasma = Cd/Cp × 100%, where the Cd and Cp values were the concentrations of each analyte in the dialysate sample and in the post-dialysis plasma sample, respectively.

[5] = Stability tests of analytes in rat plasma QC samples; format: in vitro ADME; details: rat plasma
Procedure: […] The dilution integrity was investigated by analyzing six replicate samples with each analyte, and each analyte were diluted 10-fold with blank rat matrix. Furthermore, the diluted samples were analyzed using freshly prepared calibration curve to calculate RE and RSD, which should be no more than ± 15% as criterion.

[6] = rat plasma, 30-min iv infusion of Kang-Ai injection 6 mL/kg, read-out: Cmax
[7] = rat plasma, 30-min iv infusion of Kang-Ai injection 6 mL/kg, read-out: t1/2 (converted)
[8] = rat, 30-min iv infusion of Kang-Ai injection 6 mL/kg, Table 1 unit, read-out: CLtot, p (converted)
[9] = rat, 30-min iv infusion of Kang-Ai injection 6 mL/kg, Table 1 unit, read-out: VSS
[10] = rat plasma, equilibrium dialysis 24 h, 37 °C, 2 μmol/L alkaloids, 4 μmol/L saponins, read-out: fu-plasma (unbound fraction)

Compound | fe-U,0–12h (fraction of dose excreted into urine) [2] | fe-B,0–12h (fraction of dose excreted into bile) [3] | At -80 °C for 48 h, Mean±SD ([5]; nominal conc. 20 nM) | At -80 °C for 48 h, RE ([5]; nominal conc. 20 nM) | Extracted samples at 8 °C for 18 h, Mean±SD ([5]; nominal conc. 20 nM) | Extracted samples at 8 °C for 18 h, RE ([5]; nominal conc. 20 nM) | Short-term stability at room temperature for 6 h, Mean±SD ([5]; nominal conc. 20 nM) | Short-term stability at room temperature for 6 h, RE ([5]; nominal conc. 20 nM) | Three freeze-thaw cycles (-80 °C ↔ 23 °C), Mean±SD ([5]; nominal conc. 20 nM) | Three freeze-thaw cycles (-80 °C ↔ 23 °C), RE ([5]; nominal conc. 20 nM) | At -80 °C for 48 h, Mean±SD ([5]; nominal conc. 100 nM) | At -80 °C for 48 h, RE ([5]; nominal conc. 100 nM) | Extracted samples at 8 °C for 18 h, Mean±SD ([5]; nominal conc. 100 nM) | Extracted samples at 8 °C for 18 h, RE ([5]; nominal conc. 100 nM) | Short-term stability at room temperature for 6 h, Mean±SD ([5]; nominal conc. 100 nM) | Short-term stability at room temperature for 6 h, RE ([5]; nominal conc. 100 nM) | Three freeze-thaw cycles (-80 °C ↔ 23 °C), Mean±SD ([5]; nominal conc. 100 nM) | Three freeze-thaw cycles (-80 °C ↔ 23 °C), RE ([5]; nominal conc. 100 nM) | At -80 °C for 48 h, Mean±SD ([5]; nominal conc. 400 nM) | At -80 °C for 48 h, RE ([5]; nominal conc. 400 nM) | further results
O=C1C=CC[C@@H]2[C@H]3CCC[N+]4([O-])CCC[C@@H](CN12)[C@@H]34 (stereo partly shown) [Compound A2, Oxysophocarpine] | 38.60% and 38.60 ± 11.22% | 51.92% and 51.92 ± 8.98% | 21.90 ± 0.32 nM | 10.73% | 22.58 ± 0.11 nM | 13.22% | 20.94 ± 1.33 nM | 12.22% | 22.63 ± 0.15 nM | 13.81% | 112.64 ± 0.85 nM | 13.54% | 108.59 ± 6.59 nM | 14.25% | 103.12 ± 8.16 nM | 12.17% | 103.40 ± 9.41 nM | 12.06% | 437.15 ± 14.08 nM | 11.61% | Cmax [1, 6]: 170 ± 27.4 nM; half-life [1, 7]: 1.78 ± 1.55 h; clearance [1, 8]: 0.205 mL/min; Vd [1, 9]: 0.0252 ± 0.0148 L; clearance ([1]; rat, Kang-Ai injection 6 mL/kg iv, read-out: CLtot, p (converted)): 0.205 mL/min/kg; Vd ([1]; rat, Kang-Ai injection 6 mL/kg iv, read-out: VSS (Vd)): 0.0252 L/kg; CL renal ([2]; in vivo): 0.0792 mL/min; fraction of dose excreted unchanged via renal plus hepatobiliary excretion (sum of fe-U and fe-B) ([2]; rat urine + bile, 0–12 h): exceeded 90%; fraction unbound at 24 h [4, 10]: 0.912 ± 0.0495; Extracted samples at 8 °C for 18 h, Mean±SD ([5]; nominal conc. 400 nM): 432.22 ± 7.29 nM; Extracted samples at 8 °C for 18 h, RE ([5]; nominal conc. 400 nM): 9.98%; Short-term stability at room temperature for 6 h, Mean±SD ([5]; nominal conc. 400 nM): 439.31 ± 14.14 nM; Short-term stability at room temperature for 6 h, RE ([5]; nominal conc. 400 nM): 12.94%; Three freeze-thaw cycles (-80 °C ↔ 23 °C), Mean±SD ([5]; nominal conc. 400 nM): 418.53 ± 37.48 nM; Three freeze-thaw cycles (-80 °C ↔ 23 °C), RE ([5]; nominal conc. 400 nM): 14.91%
CC(C)=CCC[C@](C)(O)[C@H]1CC[C@]2(C)[C@@H]1[C@H](O)C[C@@H]1[C@@]3(C)CC[C@H](O)C(C)(C)[C@@H]3[C@@H](O[C@@H]3O[C@H](CO)[C@@H](O)[C@H](O)[C@H]3O)C[C@]12C [Compound C1, Ginsenoside Rh1] | 9.59 ± 1.68% | 9.71 ± 0.98% | 22.38 ± 0.33 nM | 13.76% | 20.79 ± 2.88 nM | -12.72% | 20.81 ± 2.57 nM | 13.31% | 20.14 ± 2.50 nM | -13.10% | 88.26 ± 1.17 nM | -13.03% | 100.20 ± 11.08 nM | 12.81% | 92.25 ± 8.56 nM | -13.70% | 99.91 ± 9.81 nM | -10.86% | 379.88 ± 25.01 nM | -9.26% | Cmax [1, 6]: 140 ± 20.4 nM; half-life [1, 7]: 0.44 ± 0.39 h; clearance [1, 8]: 3.31 mL/min; Vd [1, 9]: 0.0936 ± 0.0456 L; AUC(0-t) ([1]; rat, iv, rat plasma, 30-min iv infusion of Kang-Ai injection 6 mL/kg, read-out: AUC0–12h): 0.0912 ± 0.00477 µM·h; CL renal ([2]; in vivo): 0.316 mL/min; fraction unbound at 24 h [4, 10]: 0.463 ± 0.0503; Extracted samples at 8 °C for 18 h, Mean±SD ([5]; nominal conc. 400 nM): 424.42 ± 36.39 nM; Extracted samples at 8 °C for 18 h, RE ([5]; nominal conc. 400 nM): 12.32%; Short-term stability at room temperature for 6 h, Mean±SD ([5]; nominal conc. 400 nM): 376.44 ± 26.61 nM; Short-term stability at room temperature for 6 h, RE ([5]; nominal conc. 400 nM): -12.62%; Three freeze-thaw cycles (-80 °C ↔ 23 °C), Mean±SD ([5]; nominal conc. 400 nM): 370.01 ± 38.18 nM; Three freeze-thaw cycles (-80 °C ↔ 23 °C), RE ([5]; nominal conc. 400 nM): -13.77%
CC(C)=CCC[C@](C)(O)[C@H]1CC[C@]2(C)[C@@H]1[C@H](O)C[C@@H]1[C@@]3(C)CC[C@H](O)C(C)(C)[C@@H]3[C@@H](O[C@@H]3O[C@H](CO)[C@@H](O)[C@H](O)[C@H]3O[C@@H]3O[C@@H](C)[C@H](O)[C@@H](O)[C@H]3O)C[C@]12C [Compound C5, Ginsenoside Rg2] | 2.23 ± 0.61% | 20.76 ± 3.37% | 19.84 ± 1.04 nM | -6.64% | 21.07 ± 0.87 nM | 8.32% | 19.68 ± 2.51 nM | 12.85% | 21.26 ± 1.22 nM | 11.13% | 96.95 ± 8.62 nM | -8.82% | 98.05 ± 6.29 nM | -8.46% | 87.52 ± 0.79 nM | -12.97% | 104.41 ± 11.32 nM | 12.73% | 410.70 ± 32.70 nM | 8.22% | Cmax ([1]; rat, iv): 231 ± 17.4 nM; clearance ([1]; rat, iv): 2.63 mL/min; half-life ([1]; rat, iv): 9.77 ± 13.7 h; AUC(0-t) ([1]; rat, iv, AUC0–12h): > 0.1 µM·h; CL renal ([2]; urine and plasma): 0.0552 mL/min; fraction unbound at 24 h ([4]; rat, plasma): 0.265 ± 0.0328; Extracted samples at 8 °C for 18 h, Mean±SD ([5]; nominal conc. 400 nM): 404.47 ± 42.95 nM; Extracted samples at 8 °C for 18 h, RE ([5]; nominal conc. 400 nM): -10.83%; Short-term stability at room temperature for 6 h, Mean±SD ([5]; nominal conc. 400 nM): 361.60 ± 11.46 nM; Short-term stability at room temperature for 6 h, RE ([5]; nominal conc. 400 nM): -11.77%; Three freeze-thaw cycles (-80 °C ↔ 23 °C), Mean±SD ([5]; nominal conc. 400 nM): 374.05 ± 38.03 nM; Three freeze-thaw cycles (-80 °C ↔ 23 °C), RE ([5]; nominal conc. 400 nM): -12.71%
